Assays:
souris [1] = conditions: in vivo, ip
Method: (§1) Le CRL 41131, en suspension dans une solution de gomme arabique à 5%, a été administré par voie intrapéritonéale sous un volume de 20 ml/kg chez la souris (mâle, NMRI, Evic Ceba) et de 5 ml/kg chez le rat (mâle, CD1, Sprague Dawley, Charles River).
Le test est pratiqué sur des lots de 10 souris, 30 min après l'administration de CRL 41131.

souris [2] = assay: Pretoxicity (3 mice per dose); conditions: intraperitoneal, mouse
Method: as §1

souris [3] = assay: Spontaneous motility (actimeter); type: in vivo
Method: Après avoir reçu le CRL 41131, les souris (6 par dose, 12 témoins) sont placées en actimètre où leur motilité est enregistrée pendant 30 min.

souris [4] = assay: Asphyxic anoxia (gallamine triethiodide); type: in vivo; conditions: i.p. 30 min before gallamine triethiodide 32 mg/kg i.p.
Method: Des lots de 10 souris reçoivent le CRL 41131 30 min avant l'administration intrapéritonéale de 32 mg/kg de triiodoéthylate de gallamine.

For `O=C(CC(=O)N(c1ccc(F)cc1)c1ccc(F)cc1)NO` [CRL 41131, acide N,N-bis-(4-fluorophényl) carbamoylacétohydroxamique], the incapacité motrice (souris [1]) was “ne provoque pas l'incapacité motrice majeure”, the “Prétoxicité: signes observés” value (souris [2]; 512 mg/kg) was “sédation, crampes abdominales, diminution de la fréquence respiratoire pendant 30 min, puis excitation. A 24 h : excitation et stéréotypies” and the “Prétoxicité: signes observés” value (souris [2]; 1024 mg/kg) was “sédation, crampes abdominales, diminution de la fréquence respiratoire pendant 30 min, puis excitation. A 24 h : excitation, stéréotypies et convulsions”. For the same compound, the “Prétoxicité: signes observés” value (souris [2]; 128 et 256 mg/kg) was “à partir de 30 min : excitation; à 24 h, l'excitation est encore présente, et présence de stéréotypies”, the mortalité (souris [2]; 128 to 1024 mg/kg) was “Aucune mortalité” and the “durée de l'effet” value (souris [3]; 32 mg/kg i.p.) was 4 h. For the same compound, the “durée de l'effet” value (souris [3]; 128 mg/kg i.p.) was 4 à 24 h, the “durée de l'effet” value (souris [3]; 512 mg/kg i.p.) was > 24 h and the hypermotilité (souris [3]; 512 mg/kg i.p. (highest dose), given 30 min before actimeter) was “l'hypermotilité est moins importante qu'à 128 mg/kg”. The “activité motrice spontanée” value (souris [3]; 8, 32, 128 et 512 mg/kg i.p., given 30 min before actimeter) was “augmente modérément l'activité motrice spontanée”, the “activité motrice spontanée” value (souris [3]; 128 et 512 mg/kg i.p., given 2 h before actimeter) was “cette augmentation est plus nette” and the “motilité spontanée” value (souris [3]; 128 et 512 mg/kg i.p., given 4 h before actimeter) was “augmente la motilité spontanée”. The “activité motrice spontanée” value (souris [3]; from 8 mg/kg i.p., given 2 h before actimeter) was “augmente l'activité motrice spontanée”, the minimal effective dose (souris [3]; ip, mouse, i.p., overall conclusion, read-out: doses qui augmentent l'activité motrice spontanée) was ≥ 32 mg/kg and the “motilité spontanée” value (souris [3]; only 512 mg/kg i.p., given 24 h before actimeter) was “augmente modérément la motilité spontanée”. For the same compound, the “délai d'apparition des convulsions consécutives à une anoxie asphyxique” value (souris [4]) was “ne modifie pratiquement pas”.
